Laboratory results as given in patent publication US8722649B2, “Alpha-chloro and alpha-bromo phosphonate analogs of lysophosphatidic acid and methods of making and using thereof” (University of Utah Research Foundation, priority 2007, dated 2014).

How the values were obtained:
recombinant ATX-HA = target: T1, recombinant ATX-HA (Homo sapiens, UniProt Q13822); assay: Autotaxin assay (FS-3 hydrolysis); format: biochemical; settings: 10.0 μM; FS-3 substrate; preliminary single-dose screen
T1 construct: HA
Method: Autotaxin Assay. This assay utilizes FS-3 (Echelon Biosciences, Inc. Salt Lake City, Utah) as substrate and recombinant ATX-HA. For analysis, 50 μl of ATX-HA (0.25 μg) in assay buffer (Tris 50 mM, NaCl 140 mM, KCl 5mM, CaCl2 1 mM, MgCl2 1 mM, pH 8.0) was mixed with 25 μl of FS-3 (1 μM final concentration in assay buffer) and 25 μl of test compound dissolved in assay buffer containing 1:1.5 bovine serum albumin in 96-well plate. FS-3 fluorescence was monitored using FLEXstation fluorescence plate reader at a time zero and after 2 hours of incubation at 37° C. at excitation and emission wavelengths of 485 nm and 538 nm, respectively. Data was normalized to the corresponding vehicle control and the mean±standard deviation of triplicate wells were expressed as percent ATX inhibition. IC50, and Ki values were calculated as described.

human LPA1 = target: T2, human LPA1 (Homo sapiens, UniProt Q92633); assay: Ca2+ mobilization assay, LPA1; format: cell-based; settings: for EC50: RH7777 cells stably expressing LPA1, agonist mode; for IC50: antagonist mode vs 200 nM LPA, PA = partial antagonist, read-out: LPA1 IC50
T2 construct: expressed in transfected cells
Method: (§1) Receptor activation using Ca^2+ mobilization assay for diastereomers of 1 (also represented as 19b). The rat hepatoma (RH7777) cell lines individually expressing either LPA1, LPA2, LPA3 or LPA5 receptors and Chinese hamster ovary (CHO) cell line were analyzed to examine agonism and antagonism. […] CHO cells stably expressing either vector or LPA4 were kindly gifted from Dr. Shimizu (University of Tokyo, Tokyo, Japan).
(§2) Stable transformants of LPA1/2/3 receptors. RH7777 cells stably expressing each receptor were plated onto poly-L-lysine (PLL) (0.1 mg/mL)-coated black-wall clear-bottom 96-well plates (Corning Incorporated Life Sciences, Acton, Mass.) at a density of 5×10^4 cells/well and cultured overnight. The following day, the culture medium was replaced with modified Krebs buffer (120 mM NaCl, 5 mM KCl, 0.62 mM MgSO4, 1.8 mM CaCl2, 10 mM HEPES, 6 mM glucose, pH 7.4), and the cells were serum starved for 6 h. Subsequently, cells were loaded with Fura-2 AM (Invitrogen, Carlsbad, Calif.) for 35 min in modified Krebs buffer containing 2% (v/v) pluronic acid.
(§3) After incubating the cells with Fura-2 AM, the cells were rinsed with Krebs buffer and changes in the intracellular Ca^2+ concentration were monitored by determining the ratio of emitted light intensities at 520 nm in response to excitation at 340 and 380 nm using FLEXstation II (Molecular Devices, Sunnyvale, Calif.). Each well was monitored for 80-120 sec. For testing agonist activity of the compounds, the test compounds were added automatically after 15 sec of baseline measurement. To determine antagonist properties, varying concentrations of the compounds were mixed with a constant concentration of LPA and responses were monitored. Each test was performed in quadruplicate. EC50, IC50, and Ki values were calculated by fitting a sigmoid function to data points with the nonlinear curve-fitting feature of KaleidaGraph (Synergy Software, Essex Junction, Vt.).
Receptor activation using Ca^2+ mobilization assay. The assay for mobilization of intracellular Ca^2+ was performed as described. Briefly, rat hepatoma RH7777 cells stably expressing human LPA1, LPA2, or LPA3, and CHO cells stably expressing LPA4, were loaded with Fura-2 AM (Molecular Probes). Using a FLEXStation (Molecular Devices, Sunnyvale, Calif.), changes in intracellular Ca^2+ concentration were monitored. Ligand-induced changes in fluorescence were monitored for 80-120 seconds. Ca^2+ transients were quantified automatically by calculating the difference between maximum and baseline ratio values for each sample. To determine antagonist properties, different concentrations of each analogue were mixed with either palmitoyl (16:0) or oleoyl (18:1) LPA (200 nM for LPA1 and LPA3, 10 nM for LPA2, and 400 nM for LPA4) (Avanti Polar Lipids, Inc., […], Ala.) and responses were recorded. Each test was performed in quadruplicate. EC50, IC50, and Ki values were calculated as described. The ligand properties of the compounds were evaluated using Ca^2+ mobilization assay for assessing the activation/inhibition of LPA1, LPA2, and LPA3 expressed in RH7777 cells and LPA4 expressed in CHO cells. Table l illustrates calcium responses elicited through the activation of human LPA1, LPA2, LPA3 and LPA4 receptors. These cell lines have been used extensively for the characterization of LPA GPCR ligands because RH7777 cells are intrinsically unresponsive to LPA and CHO cells show minimal endogenous responses to LPA unless transfected with LPA4.

human LPA3 = target: T3, human LPA3 (Homo sapiens, UniProt Q9UBY5); assay: Ca2+ mobilization assay, LPA3; format: cell-based; settings: RH7777 cells stably expressing LPA3; agonist mode
T3 construct: expressed in transfected cells
T3 sequence (Q9UBY5 1-353): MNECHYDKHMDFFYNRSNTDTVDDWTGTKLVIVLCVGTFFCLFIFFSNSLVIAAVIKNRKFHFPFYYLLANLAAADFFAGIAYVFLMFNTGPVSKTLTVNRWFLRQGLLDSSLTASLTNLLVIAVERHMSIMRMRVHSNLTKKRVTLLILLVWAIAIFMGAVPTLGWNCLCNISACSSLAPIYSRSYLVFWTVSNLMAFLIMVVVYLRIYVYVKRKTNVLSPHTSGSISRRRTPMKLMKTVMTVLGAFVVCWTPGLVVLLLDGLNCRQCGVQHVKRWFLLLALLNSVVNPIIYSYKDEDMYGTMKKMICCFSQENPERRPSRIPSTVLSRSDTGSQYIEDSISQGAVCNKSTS
Method: as §1, §2
as §3, with “To determine antagonist properties, varying concentrations of the compounds were mixed with a constant concentration of LPA and responses were monitored.” left out
(§4) Receptor activation using Ca^2+ mobilization assay. The assay for mobilization of intracellular Ca^2+ was performed as described. Briefly, rat hepatoma RH7777 cells stably expressing human LPA1, LPA2, or LPA3, and CHO cells stably expressing LPA4, were loaded with Fura-2 AM (Molecular Probes). Using a FLEXStation (Molecular Devices, Sunnyvale, Calif.), changes in intracellular Ca^2+ concentration were monitored. Ligand-induced changes in fluorescence were monitored for 80-120 seconds. Ca^2+ transients were quantified automatically by calculating the difference between maximum and baseline ratio values for each sample. […] Each test was performed in quadruplicate. EC50, IC50, and Ki values were calculated as described. The ligand properties of the compounds were evaluated using Ca^2+ mobilization assay for assessing the activation/inhibition of LPA1, LPA2, and LPA3 expressed in RH7777 cells and LPA4 expressed in CHO cells.

human LPA4 = target: T4, human LPA4 (Homo sapiens, UniProt Q99677); assay: Ca2+ mobilization assay, LPA4 in CHO cells; format: cell-based; settings: CHO cells stably expressing LPA4; agonist mode
T4 construct: expressed in transfected cells
Method: as §1
Stable transformants of LPA4. CHO cells stably expressing either vector or LPA4 were plated on non-coated 96 well plates at a density of 4×10^4 cells/well and cultured overnight. The following day, cells were loaded with Fura-2 AM for 1 h in modified Krebs buffer containing 2% (v/v) pluronic acid and 2.5 mM probenecid.
as §3, with “To determine antagonist properties, varying concentrations of the compounds were mixed with a constant concentration of LPA and responses were monitored.” left out
as §4

human LPA2 = target: T5, human LPA2 (Homo sapiens, UniProt Q9HBW0); assay: Ca2+ mobilization assay, LPA2; format: cell-based; settings: RH7777 cells stably expressing LPA2; agonist mode
T5 construct: expressed in transfected cells
Method: as §1, §2
as §3, with “To determine antagonist properties, varying concentrations of the compounds were mixed with a constant concentration of LPA and responses were monitored.” left out
as §4

PPARγ = target: T6, PPARγ (Homo sapiens, UniProt P37231); assay: PPARγ activation assay (PPRE-Acox-Rluc reporter in CV-1 cells); format: cell-based; settings: 10 μM test analogue, 20 h
T6 construct: expressed in transfected cells; host or cells: CV-1 cells, transient (LipofectAMINE 2000)
T6 sequence (P37231 1-505): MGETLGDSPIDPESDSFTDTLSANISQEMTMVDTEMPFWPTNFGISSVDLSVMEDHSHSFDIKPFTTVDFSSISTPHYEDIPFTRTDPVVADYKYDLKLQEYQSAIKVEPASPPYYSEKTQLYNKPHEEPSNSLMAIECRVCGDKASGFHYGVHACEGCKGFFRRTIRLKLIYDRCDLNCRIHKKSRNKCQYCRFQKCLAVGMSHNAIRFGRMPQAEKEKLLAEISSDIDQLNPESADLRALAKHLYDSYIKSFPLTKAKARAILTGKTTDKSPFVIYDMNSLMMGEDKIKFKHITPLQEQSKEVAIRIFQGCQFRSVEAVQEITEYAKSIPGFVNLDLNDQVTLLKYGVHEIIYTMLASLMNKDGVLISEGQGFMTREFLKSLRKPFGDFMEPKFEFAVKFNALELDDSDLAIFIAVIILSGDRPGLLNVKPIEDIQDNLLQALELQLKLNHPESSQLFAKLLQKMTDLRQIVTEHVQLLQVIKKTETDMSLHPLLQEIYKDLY
Method: PPARγ activation assay. PPARγ activation was performed using CV-1 cells transfected with an acyl-coenzyme A oxidase-luciferase (PPRE-Acox-Rluc) reporter gene construct as previously reported. Briefly, CV-1 cells were plated in 96-well plates at a density of 1×10^4 cells per well in Dulbecco's modified Eagle's medium supplemented with 10% fetal bovine serum. The next day, the cells were transiently transfected with 125 ng of pGL3-PPRE-Acox-Rluc, 62.5 ng of pcDNA3.1 PPARγ, and 12.5 ng of pSV-β-galactosidase (Promega) using LipofectAMINE 2000 (Invitrogen). Twenty-four hours after transfection, cells were treated with OptiMEM (Invitrogen) containing 10 μM Rosiglitazone or 10 μM of the test analogue dissolved in DMSO for 20 h. Luciferase and β-galactosidase activities were measured with Steady-Glo® Luciferase Assay System (Promega) and the Galacto-Light Plus™ system (Applied Biosystems), respectively. Samples were run in quadruplicate and the mean ±standard errors were calculated. Data are representative of at least two independent transfections.

T2 sequence (Q92633 whole entry): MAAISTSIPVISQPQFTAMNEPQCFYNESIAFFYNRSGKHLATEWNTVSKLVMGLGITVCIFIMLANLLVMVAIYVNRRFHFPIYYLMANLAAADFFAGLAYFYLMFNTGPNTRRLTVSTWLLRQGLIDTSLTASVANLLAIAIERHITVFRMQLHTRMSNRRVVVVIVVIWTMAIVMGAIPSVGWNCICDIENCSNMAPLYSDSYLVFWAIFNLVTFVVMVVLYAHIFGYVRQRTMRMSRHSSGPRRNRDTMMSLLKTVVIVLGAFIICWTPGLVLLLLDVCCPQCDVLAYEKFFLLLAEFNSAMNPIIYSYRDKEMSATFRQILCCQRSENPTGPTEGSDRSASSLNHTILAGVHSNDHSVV
T5 sequence (Q9HBW0 whole entry): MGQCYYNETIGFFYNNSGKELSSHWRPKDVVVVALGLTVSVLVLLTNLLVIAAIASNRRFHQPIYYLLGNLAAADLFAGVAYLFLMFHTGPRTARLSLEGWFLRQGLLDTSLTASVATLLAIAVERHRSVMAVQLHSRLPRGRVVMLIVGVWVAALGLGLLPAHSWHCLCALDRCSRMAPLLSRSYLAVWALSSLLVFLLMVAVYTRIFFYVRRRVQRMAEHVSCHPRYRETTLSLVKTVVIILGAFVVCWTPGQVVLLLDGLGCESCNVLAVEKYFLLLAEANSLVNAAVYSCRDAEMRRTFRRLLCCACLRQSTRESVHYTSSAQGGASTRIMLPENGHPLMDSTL
T4 sequence (Q99677 whole entry): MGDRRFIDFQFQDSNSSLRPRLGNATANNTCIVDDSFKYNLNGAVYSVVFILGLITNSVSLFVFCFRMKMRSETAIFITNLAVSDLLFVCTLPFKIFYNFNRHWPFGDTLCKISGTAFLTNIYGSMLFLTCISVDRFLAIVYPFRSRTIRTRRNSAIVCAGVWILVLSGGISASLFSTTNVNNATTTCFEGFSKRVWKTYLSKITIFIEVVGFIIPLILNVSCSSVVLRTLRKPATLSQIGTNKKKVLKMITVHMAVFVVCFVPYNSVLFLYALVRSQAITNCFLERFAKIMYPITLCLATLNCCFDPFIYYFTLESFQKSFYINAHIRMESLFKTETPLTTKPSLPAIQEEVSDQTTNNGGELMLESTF

Row | Inhibition (%) of autotaxin (ATX) phosphodiesterase activity (recombinant ATX-HA) [%] | EC50 (human LPA1) [µM] | IC50 (human LPA1) [µM] | EC50 (human LPA3) [µM] | EC50 (human LPA4) [µM] | EC50 (human LPA2) [µM] | PPARγ (PPRE luciferase reporter gene assay) (PPARγ) | Structure (SMILES)
1 | 78.5 ± 2.3 |  |  |  |  |  |  | CCCCCC/C=C\CCCCCCCC(=O)OCC1COP(=O)(O)C1 (centres unmarked) [2ccPA (16:1), 2-carba cyclic phosphatidic acid 16:1, reference compound]
2 | 56.6 | > 30 | > 30 | > 30 | > 30 | > 30 |  | CCCCCCCCCCCCCCCC(=O)OCC(O)CC(O)P(=O)([O-])O.[Na+] (centres unmarked) [Compound 24a, reference compound]
3 | 43.4 | > 30 | > 30 | > 30 | > 30 | > 30 |  | CCCCCCCCCCCCCCCC(=O)OCC(O)CC(O)P(=O)([O-])O.[Na+] (centres unmarked) [Compound 24b, reference compound]
4 | 88.4 ± 1.3 | 0.1 ± 0.0132 | > 30 |  |  |  | Ago- | CCCCCCCC/C=C\CCCCCCCC(=O)OC[C@@H](O)COP(=O)(O)O [LPA (18:1), reference compound]
